Tests used:
Type in all cases: in vivo
abutilon = experiment: Test of herbicidal activity, post-seedling stem and leaf spray in greenhouse, abutilon; settings: for herbicidal activity against abutilon compared with Control compounds A, B and C: at different doses, summary of Table 5; for Abutilon (%) control effect: post-seedling stem and leaf spray
Description: (§1) Seeds of broadleaf weeds (abutilon, Solanum nigrum) or gramineous weeds (crabgrass, barnyard grass) were sown into nutrient soil in plastic cups, respectively, and then covered with soil, compacted, watered, and further cultivated in a greenhouse by conventional methods. The stems and leaves of the weeds were sprayed when the weeds reached the 2- to 3-leaf stage. The test compounds of the present application were dissolved in acetone respectively, followed by addition of Tween 80. The solution was diluted with a certain amount of water to a certain solubility, and then sprayed onto the plants using a spray tower. The test was repeated three times. After drying naturally in the shade, the plants were put in a greenhouse and managed according to conventional methods. The growth and development of weeds were observed, and the control effect of the test agent on weeds was checked visually periodically, which was expressed by 0-100%, with “0” representing no control effect, and “100%” representing complete killing or severe inhibition.

Solanum nigrum = experiment: Test of herbicidal activity, post-seedling stem and leaf spray in greenhouse, Solanum nigrum; settings: for herbicidal activity against Solamum nigrum compared with Control compounds A, B and C: at different doses, summary of Table 5; for Solanum nigrum (%) control effect: post-seedling stem and leaf spray
Description: as §1

crabgrass = experiment: Test of herbicidal activity, post-seedling stem and leaf spray in greenhouse, crabgrass; settings: for herbicidal activity against crabgrass compared with Control compounds A, B and C: at different doses, summary of Table 5; for Crabgrass (%) control effect: post-seedling stem and leaf spray
Description: as §1

barnyard grass = experiment: Test of herbicidal activity, post-seedling stem and leaf spray in greenhouse, barnyard grass; settings: for herbicidal activity against barnyard grass compared with Control compounds A, B and C: at different doses, summary of Table 5; for Barnyard grass (%) control effect: post-seedling stem and leaf spray
Description: as §1

corn = experiment: Safety testing on corn, stem and leaf spray in greenhouse; settings: for inhibitory effect on corn (crop safety): at different doses, as compared to Control compounds A, B, and C, summary of Table 6; for Corn (%) safety (crop damage): stem and leaf spray
Description: (§2) The seeds of corn and rice were sown into nutrient soil in plastic cups, respectively, then covered with soil, compacted, watered, and further cultivated in a greenhouse by conventional methods. The stems and leaves of the crops were sprayed when the crops reached the 2- to 3-leaf stage. The test compounds of the present application were dissolved in acetone, followed by addition of Tween 80. The solution was then diluted with a certain amount of water to a certain solubility, and sprayed onto the plants using a spray tower. The test was repeated three times. After drying naturally in the shade, the plants were put in a greenhouse and managed according to conventional methods. The growth and development of corn and rice were observed, and the safety of the test agent on corn and rice was checked visually periodically. A safety grading standard was represented by 0-100%, with “O” representing no damage to crops, and “100%” representing complete killing or severe inhibition of crops.

rice = experiment: Safety testing on rice, stem and leaf spray in greenhouse; settings: for inhibitory effect on rice (crop safety): at different doses, as compared to Control compounds A, B, and C, summary of Table 6; for Rice (%) safety (crop damage): stem and leaf spray
Description: as §2

[1] = dose 300 g a.i/ha, 0 = no control effect, 100% = complete killing or severe inhibition
[2] = dose 300 g a.i/ha, 0 = no damage to crops, 100% = complete killing or severe inhibition

| SMILES | Abutilon (%) control effect (abutilon; dose 37.5 g a.i/ha) | Abutilon (%) control effect (abutilon; dose 75 g a.i/ha) | Abutilon (%) control effect (abutilon; dose 150 g a.i/ha) | Abutilon (%) control effect (abutilon; [1]) | Solanum nigrum (%) control effect (Solanum nigrum; dose 37.5 g a.i/ha) | Solanum nigrum (%) control effect (Solanum nigrum; dose 75 g a.i/ha) | Solanum nigrum (%) control effect (Solanum nigrum; dose 150 g a.i/ha) | Solanum nigrum (%) control effect (Solanum nigrum; dose 300 g a.i/ha) | Crabgrass (%) control effect (crabgrass; dose 37.5 g a.i/ha) | Crabgrass (%) control effect (crabgrass; dose 75 g a.i/ha) | Crabgrass (%) control effect (crabgrass; dose 150 g a.i/ha) | Crabgrass (%) control effect (crabgrass; dose 300 g a.i/ha) | Barnyard grass (%) control effect (barnyard grass; dose 37.5 g a.i/ha) | Barnyard grass (%) control effect (barnyard grass; dose 75 g a.i/ha) | Barnyard grass (%) control effect (barnyard grass; dose 150 g a.i/ha) | Barnyard grass (%) control effect (barnyard grass; dose 300 g a.i/ha) | Corn (%) safety (crop damage) (corn; dose 37.5 g a.i/ha) | Corn (%) safety (crop damage) (corn; dose 75 g a.i/ha) | Corn (%) safety (crop damage) (corn; dose 150 g a.i/ha) | Corn (%) safety (crop damage) (corn; [2]) | further results |
| --- | --- | --- | --- | --- | --- | --- | --- | --- | --- | --- | --- | --- | --- | --- | --- | --- | --- | --- | --- | --- | --- |
| Cc1nn(Cc2c(S(C)(=O)=O)ccc(C(=O)c3c(C4CC4)nn(C)c3OC(=O)c3c(C)nn(C)c3Cl)c2Cl)c(=O)o1 [Compound 201] | 55% | 80% | 92% | 98% | 55% | 75% | 95% | 100% | 45% | 65% | 80% | 90% | 55% | 75% | 95% | 100% | 0% | 0% | 0% | 0% | herbicidal activity against abutilon compared with Control compounds A, B and C (abutilon): better herbicidal activities; herbicidal activity against Solamum nigrum compared with Control compounds A, B and C (Solanum nigrum): better herbicidal activities; herbicidal activity against crabgrass compared with Control compounds A, B and C (crabgrass): better herbicidal activities; herbicidal activity against barnyard grass compared with Control compounds A, B and C (barnyard grass): better herbicidal activities; inhibitory effect on corn (crop safety) (corn): no significant inhibitory effect; inhibitory effect on rice (crop safety) (rice): no significant inhibitory effect; Rice (%) safety (crop damage) (rice; dose 37.5 g a.i/ha): 0%; Rice (%) safety (crop damage) (rice; dose 75 g a.i/ha): 0%; Rice (%) safety (crop damage) (rice; dose 150 g a.i/ha): 0%; Rice (%) safety (crop damage) (rice; dose 300 g a.i/ha): 2% |
| CCS(=O)(=O)c1ccc(C(=O)c2c(C)nn(C)c2OC(=O)c2cc(C)nn2C)c(Cl)c1Cn1nc(C)oc1=O [Compound 224] | 55% | 80% | 90% | 92% | 50% | 70% | 90% | 93% | 45% | 65% | 80% | 84% | 50% | 70% | 85% | 88% | 0% | 0% | 0% | 2% | herbicidal activity against abutilon compared with Control compounds A, B and C (abutilon): better herbicidal activities; herbicidal activity against Solamum nigrum compared with Control compounds A, B and C (Solanum nigrum): better herbicidal activities; herbicidal activity against crabgrass compared with Control compounds A, B and C (crabgrass): better herbicidal activities; herbicidal activity against barnyard grass compared with Control compounds A, B and C (barnyard grass): better herbicidal activities; inhibitory effect on corn (crop safety) (corn): no significant inhibitory effect; inhibitory effect on rice (crop safety) (rice): no significant inhibitory effect; Rice (%) safety (crop damage) (rice; dose 37.5 g a.i/ha): 0%; Rice (%) safety (crop damage) (rice; dose 75 g a.i/ha): 0%; Rice (%) safety (crop damage) (rice; dose 150 g a.i/ha): 2%; Rice (%) safety (crop damage) (rice; dose 300 g a.i/ha): 5% |
| CS(=O)(=O)c1ccc(C(=O)C2C(=O)CCCC2=O)c(Cl)c1 [Control compound A, reference compound] | 50% | 80% | 98% | 100% | 50% | 70% | 90% | 95% | 5% | 25% | 45% | 50% | 10% | 30% | 50% | 60% | 0% | 0% | 0% | 5% | Rice (%) safety (crop damage) (rice; dose 37.5 g a.i/ha): 10%; Rice (%) safety (crop damage) (rice; dose 75 g a.i/ha): 25%; Rice (%) safety (crop damage) (rice; dose 150 g a.i/ha): 45%; Rice (%) safety (crop damage) (rice; dose 300 g a.i/ha): 60% |
